Source: article PMC9890698 (BMC Biology, 2023)
Where “and” joins values, the source holds several entries; their conditions need not be identical. Identical values can stand only once.

Columns and labels:
Human P2Y1-R = biological target: T1, Human P2Y1-R (Homo sapiens, UniProt P47900); experiment: β-arrestin 2 recruitment BRET1 assay (β-arrestin 2-RLuc / P2Y1-R-Venus) in HEK293T cells; assay type: cell-based; conditions: for MRS2179-modulated BRET: Figure 3g; for MRS2179-modulated BRET / b-arrestin 2 signaling, Ligand-modulated BRET (% of maximum MRS2179 mean value) / Ligand-modulated BRET: individual replicates; for b-arrestin 2 signaling, Ligand-modulated BRET (% of maximum MRS2179 mean value): Figure 4b; for Ligand-modulated BRET: Figure 3h, ligand 10 µM
T1 construct: expressed in transfected cells; host or cells: HEK293T/17
Text: We assessed β-arrestin 2 recruitment to the receptor using BRET^1 assay. The assay measures the interaction between β-arrestin 2 fused to the Renilla reniformis luciferase (RLuc) energy donor and the receptor fused to fluorescent Venus energy acceptor (Fig. 3a). The recruitment of cytosolic β-arrestin 2 to the receptor at the plasma membrane in the presence of an agonist will promote a significant increase of the BRET signal compared to the basal state, reflecting the close proximity between the β-arrestin 2 energy donor and the receptor energy acceptor [22].
Human P2Y1-R (NCBI Reference Sequence: NM_002563.2) and P2Y12-R (NCBI Reference Sequence: NM_022788.3) were fused to double Myc epitope and rat AT1-R (NCBI Reference Sequence: NM_030985.4) to HA tag in N-terminus extracellular region. Alternatively, receptors were also fused to Venus tag in C-terminus intracellular region. Plasmids encoding Gαq-RLuc8, GFP2-Gγ2 and untagged Gβ1 were previously described. ADP was purchased from Sigma-Aldrich/Merck (Darmstadt, Germany). […] The Gq inhibitor (FR900359) was kindly supplied by Evi Kostenis (University of Bonn. Germany).
G protein activation and β-arrestin 2 recruitment were performed as previously described. Briefly, vectors encoding receptors, Gαq-RLuc8, GFP2-Gγ2, Gβ1, or β-arrestin 2 were transiently cotransfected into HEK293T/17 cells as indicated in the figure legends. Forty-eight hours after transfection, cells were washed and resuspended in PBS containing 0.1% (w/v) glucose at room temperature and then distributed (80 μg proteins/well) in a 96-well microplate (PerkinElmer). For G protein activation experiments (BRET^2), cells were incubated in the absence (basal BRET signal) or in the presence of ligand for 1 minute. BRET signal between RLuc8 and GFP2 was measured after addition of the luciferase substrate coelenterazine 400a (5 μM). For β-arrestin 2 recruitment (BRET^1), cells were stimulated with ligands for 5 or 15 min. BRET signal was recorded after incubation with coelenterazine h (5 μM) for 8 min. For kinetics studies, BRET signal between RLuc and Venus was recorded at 20-s intervals at basal state for the 2 first minutes and then for 5 min after ligand injection. For saturation curves (BRET^1), the expression level of Venus- or RLuc-tagged protein was determined by direct measurement of total fluorescence and luminescence respectively. Total fluorescence was first measured with an excitation filter at 485 nm and an emission filter at 520 nm. Then, the same sample was incubated for 8 minutes with 5 μM coelenterazine h and the total luminescence was measured. BRET^2 and BRET^1 readings were collected using a modified Infinite F500 (Tecan Group Ltd). The BRET^2 signal was calculated by the ratio of emission of GFP2 (510–540 nm) to RLuc8 (370–450 nm) and the BRET^1 signal by the ratio of emission of Venus (520–570 nm) to RLuc (370–480 nm). Sometimes, results are expressed as the Net BRET computed by deducting the BRET background signal (obtained in the presence of the energy donor alone) from the BRET signal (acquired from cells expressing both the energy donor and acceptor).

[1] = test system: washed human platelets (P2Y1-R/Gαq signaling); experiment: IP1 accumulation assay (HTRF) in washed human platelets; assay type: cell-based; conditions: for IP1 concentration (% of basal mean at 30 minutes): Fig. S4a, MRS2179 10 µM, individual replicates
Description: As performed in HEK293T cells, we thus quantified intracellular IP1 levels to monitor Gαq protein-dependent signaling pathways.
Human platelets were prepared from adult healthy volunteers free of antiplatelet or anti-inflammatory medication since at least ten days. […] After two steps of centrifugation and suspension in Tyrode’s buffer (140 mM NaCl, 5 mM KCl, 5 mM KH2PO4, 1 mM MgSO4, 10 mM HEPES, 5 mM glucose and 0.35% (w/v) BSA, pH 6,7), washed platelets were suspended in the same buffer adjusted to pH 7.4 and containing 1 mM CaCl2. The final platelet suspension was adjusted to 3.10^8 platelets/mL and rested for 45 min in the presence of 0.02 U/mL apyrase and 10 μM indomethacin at 37 °C prior experiments. PGI2 (0.5 μM) was added before centrifugation steps to avoid platelet activation.
Quantification of intracellular IP1 was performed using the HTRF (Homogeneous Time Resolved Fluorescence) IP1 competitive immunoassay (IP-One Tb kit. Cisbio. France) according to the manufacturer’s instructions. Briefly, 20,000 HEK293T/17 cells or 3.10^6 platelets were distributed in a 384-well white microplate (Greiner) and incubated with the indicated molecules for 30 min or 2 h at 37 °C in the presence of 50 mM of LiCl to prevent IP1 degradation. After addition of d2-labeled IP1 (acceptor) and anti-IP1-Cryptate (donor) for 1 h, the specific FRET signals were calculated by the fluorescence ratio of the acceptor and donor emission signal (665/620 nm) collected using a modified Infinite F500 (Tecan Group Ltd). Conversion of the HTRF ratio of each sample into IP1 concentrations was performed on the basis of a standard curve to determine the linear dynamic range of the assay.

[2] = Fig. 3g, inverse agonism on β-arrestin 2 recruitment, 15 min
[3] = β-Arrestin 2 signaling, Fig. 4b, 15 min

T1 sequence (P47900 whole entry): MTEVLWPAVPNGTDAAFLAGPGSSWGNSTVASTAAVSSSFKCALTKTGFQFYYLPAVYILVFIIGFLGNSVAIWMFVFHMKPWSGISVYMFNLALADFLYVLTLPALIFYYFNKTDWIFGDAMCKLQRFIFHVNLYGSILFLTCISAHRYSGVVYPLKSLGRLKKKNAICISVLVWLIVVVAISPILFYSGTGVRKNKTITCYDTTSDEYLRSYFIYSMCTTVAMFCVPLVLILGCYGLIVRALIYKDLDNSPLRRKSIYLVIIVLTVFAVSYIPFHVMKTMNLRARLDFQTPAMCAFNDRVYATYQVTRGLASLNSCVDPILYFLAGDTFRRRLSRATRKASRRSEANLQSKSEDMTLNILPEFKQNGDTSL

## CNc1ncnc2c1ncn2[C@H]1C[C@H](OP(=O)(O)O)[C@@H](COP(=O)(O)O)O1 [MRS2179]
Human P2Y1-R; 10 μM, 15 min, decreasing amounts of P2Y1-R-Venus vector, result in words
  Effect on β-arrestin 2 recruitment at decreased (low) P2Y1-R expression: loss of the inverse agonist efficacy
Human P2Y1-R; Fig. 3g, 15 min stimulation, difference in BRET signal with and without ligand
  Maximal efficacy (Emax), MRS2179-modulated BRET: -0.1192 ± 0.007029
Human P2Y1-R; [2]
  EC50: 4.56 µM
  pEC50 ± s.e.m.: 5.341 ± 0.1565
Human P2Y1-R; [MRS2179] 1.00E-04 M
  MRS2179-modulated BRET: -0.1343 and -0.1251 and -0.1075 and -0.1104 and -0.1004 and -0.1271
Human P2Y1-R; [MRS2179] 1.00E-05 M
  MRS2179-modulated BRET: -0.08399 and -0.08788 and -0.08039 and -0.09033 and -0.07645 and -0.09139
Human P2Y1-R; [MRS2179] 1.00E-06 M
  MRS2179-modulated BRET: -0.02625 and -0.04054 and -0.04836 and -0.05476 and -0.05132 and -0.07031
Human P2Y1-R; [MRS2179] 1.00E-07 M
  MRS2179-modulated BRET: -0.0171 and -0.02456 and -0.02615 and -0.04428 and -0.0209 and -0.07223
Human P2Y1-R; [MRS2179] 1.00E-08 M
  MRS2179-modulated BRET: -0.003323 and -0.0198 and -0.01307 and -0.01788 and -0.04276 and -0.0269
Human P2Y1-R; [MRS2179] 1.00E-09 M
  MRS2179-modulated BRET: -0.00593 and -0.03381 and -0.01728 and -0.01928 and -0.03943 and -0.05623
Human P2Y1-R; [MRS2179] 1.00E-10 M
  MRS2179-modulated BRET: -0.003915 and -0.01627 and -0.01217 and -0.01765 and -0.03594 and -0.03393
Human P2Y1-R; [Ligand] 1.00E-04 M
  b-arrestin 2 signaling, Ligand-modulated BRET (% of maximum MRS2179 mean value): -103.593 % of maximum MRS2179 mean value and -98.5011 % of maximum MRS2179 mean value and -96.2574 % of maximum MRS2179 mean value and -88.0215 % of maximum MRS2179 mean value and -113.627 % of maximum MRS2179 mean value
Human P2Y1-R; [Ligand] 1.00E-05 M
  b-arrestin 2 signaling, Ligand-modulated BRET (% of maximum MRS2179 mean value): -60.9526 % of maximum MRS2179 mean value and -65.9951 % of maximum MRS2179 mean value and -71.6134 % of maximum MRS2179 mean value and -73.8216 % of maximum MRS2179 mean value and -88.9449 % of maximum MRS2179 mean value
Human P2Y1-R; [Ligand] 1.00E-06 M
  b-arrestin 2 signaling, Ligand-modulated BRET (% of maximum MRS2179 mean value): -20.802 % of maximum MRS2179 mean value and -20.2455 % of maximum MRS2179 mean value and -36.1127 % of maximum MRS2179 mean value and -36.3804 % of maximum MRS2179 mean value and -49.6506 % of maximum MRS2179 mean value
Human P2Y1-R; [Ligand] 1.00E-07 M
  b-arrestin 2 signaling, Ligand-modulated BRET (% of maximum MRS2179 mean value): -19.7613 % of maximum MRS2179 mean value and -27.0869 % of maximum MRS2179 mean value and -32.4514 % of maximum MRS2179 mean value and -43.962 % of maximum MRS2179 mean value and -16.0925 % of maximum MRS2179 mean value
Human P2Y1-R; [Ligand] 1.00E-08 M
  b-arrestin 2 signaling, Ligand-modulated BRET (% of maximum MRS2179 mean value): -3.302 % of maximum MRS2179 mean value and 12.7459 % of maximum MRS2179 mean value and -20.5003 % of maximum MRS2179 mean value and -35.6867 % of maximum MRS2179 mean value and -12.0698 % of maximum MRS2179 mean value
Human P2Y1-R; [Ligand] 1.00E-09 M
  b-arrestin 2 signaling, Ligand-modulated BRET (% of maximum MRS2179 mean value): -20.2543 % of maximum MRS2179 mean value and -2.0253 % of maximum MRS2179 mean value and -34.1131 % of maximum MRS2179 mean value and -19.5954 % of maximum MRS2179 mean value and -10.4994 % of maximum MRS2179 mean value
Human P2Y1-R; [Ligand] 1.00E-10 M
  b-arrestin 2 signaling, Ligand-modulated BRET (% of maximum MRS2179 mean value): -0.05365 % of maximum MRS2179 mean value and -19.3587 % of maximum MRS2179 mean value and -11.2009 % of maximum MRS2179 mean value and -4.28 % of maximum MRS2179 mean value and -21.5173 % of maximum MRS2179 mean value
Human P2Y1-R; 0.1µg P2Y1-R plasmid
  Ligand-modulated BRET: -0.007776 and -0.009026 and 0.006633 and -0.01036 and -0.001083
Human P2Y1-R; 1µg P2Y1-R plasmid
  Ligand-modulated BRET: -0.04239 and -0.06101 and -0.06001 and -0.03815 and -0.06277
Human P2Y1-R; 4µg P2Y1-R plasmid
  Ligand-modulated BRET: -0.06559 and -0.09192 and -0.04789 and -0.08727 and -0.06156
Human P2Y1-R; HEK293T cells, high P2Y1-R expression, result in words
  Effect on β-arrestin 2 recruitment / BRET signal between P2Y1-R-Venus and β-arrestin 2-RLuc: significantly decreased the BRET signal
Human P2Y1-R; [3]
  EC50: 5.05 µM
  pEC50 ± s.e.m.: 5.296 ± 0.153
[1]; 30 minutes
  IP1 concentration (% of basal mean at 30 minutes): 61.0057 % of basal mean at 30 minutes and 99.6481 % of basal mean at 30 minutes and 82.2183 % of basal mean at 30 minutes and 56.7485 % of basal mean at 30 minutes
[1]; 2 hours
  IP1 concentration (% of basal mean at 30 minutes): 94.0172 % of basal mean at 30 minutes and 113.32 % of basal mean at 30 minutes and 105.9 % of basal mean at 30 minutes and 70.9752 % of basal mean at 30 minutes
[1]; human platelets, MRS2179 10 μM, 2 h, individual donors
  IP1 concentration (% matched basal values): 129.303 % matched basal values and 123.213 % matched basal values and 123.793 % matched basal values and 163.625 % matched basal values and 131.963 % matched basal values and 159.513 % matched basal values and 140.89 % matched basal values and 171.298 % matched basal values and 155.836 % matched basal values and 154.357 % matched basal values and 192.203 % matched basal values and 190.967 % matched basal values and 205.13 % matched basal values and 115.394 % matched basal values and 124.227 % matched basal values and 114.571 % matched basal values
[1]; washed human platelets, ADP 100 μM, antagonists 10 μM, Gq inhibitor 100 nM, 2 h, apyrase 0.02 U/mL, result in words
  Effect on IP1 levels: decreased IP1 levels
